Data taken from ChEMBL document CHEMBL4138123, “Design, synthesis and biological evaluation of novel pyrazolochalcones as potential modulators of PI3K/Akt/mTOR pathway and inducers of apoptosis in breast cancer cells” (Eur J Med Chem, 2017).

What was measured:
[1] = system: MCF7; assay: Cytotoxicity against human MCF7 cells assessed as growth inhibition after 48 hrs by MTT assay; assay type: functional, cell-based; settings: MCF7, 48 h
[2] = system: MDA-MB-231; assay: Cytotoxicity against human MDA-MB-231 cells assessed as growth inhibition after 48 hrs by MTT assay; assay type: functional, cell-based; settings: MDA-MB-231, 48 h
[3] = system: MCF7; assay: Cell cycle arrest in human MCF7 cells assessed as accumulation at S phase at 2 uM after 24 hrs by flow cytometric analysis (reference value: 79.1%); assay type: functional
[4] = system: MCF7; assay: Cell cycle arrest in human MCF7 cells assessed as accumulation at G0/G1 phase at 2 uM after 24 hrs by flow cytometric analysis (reference value: 18.4%); assay type: functional
[5] = system: MCF7; assay: Cell cycle arrest in human MCF7 cells assessed as accumulation at S phase at 2 uM after 48 hrs by flow cytometric analysis (reference value: 57.7%); assay type: functional
[6] = system: MCF7; assay: Cell cycle arrest in human MCF7 cells assessed as accumulation at G0/G1 phase at 2 uM after 48 hrs by flow cytometric analysis (reference value: 34.2%); assay type: functional
[7] = system: MCF7; assay: Cell cycle arrest in human MCF7 cells assessed as accumulation at G2/M phase at 2 uM after 24 hrs by flow cytometric analysis (reference value: 2.35%); assay type: functional
[8] = system: MCF7; assay: Cell cycle arrest in human MCF7 cells assessed as accumulation at G2/M phase at 2 uM after 48 hrs by flow cytometric analysis (reference value: 8.1%); assay type: functional
[9] = system: MCF7; assay: Induction of intrinsic apoptosis in human MCF7 cells assessed as effect on mitochondrial membrane depolarization at 2 uM after 18 hrs by DiOC6 staining-based FACS analysis (reference value: 2%); assay type: functional
[10] = system: MCF7; assay: Induction of intrinsic apoptosis in human MCF7 cells assessed as effect on mitochondrial membrane depolarization at 2 uM after 5 hrs by DiOC6 staining-based FACS analysis relative to control; assay type: functional
[11] = system: MCF7; assay: Induction of apoptosis in human MCF7 cells assessed as late apoptotic cells at 2 uM after 24 hrs by Annexin-V FITC/propidium iodide staining-based FACS analysis (reference value: 5.4%); assay type: functional
[12] = system: MCF7; assay: Induction of apoptosis in human MCF7 cells assessed as early apoptotic cells at 2 uM after 24 hrs by Annexin-V FITC/propidium iodide staining-based FACS analysis (reference value: 0.5%); assay type: functional
[13] = system: MCF7; assay: Induction of intrinsic apoptosis in human MCF7 cells assessed as effect on mitochondrial membrane depolarization by measuring mean fluorescence intensity at 2 uM after 18 hrs by DiOC6 staining-based FACS analysis (reference value: 463); assay type: functional
[14] = system: MCF7; assay: Induction of apoptosis in human MCF7 cells assessed as necrotic cells at 2 uM after 24 hrs by Annexin-V FITC/propidium iodide staining-based FACS analysis (reference value: 0.2%); assay type: functional
[15] = system: MCF7; assay: Induction of apoptosis in human MCF7 cells assessed as viable cells at 2 uM after 24 hrs by Annexin-V FITC/propidium iodide staining-based FACS analysis (reference value: 93.9%); assay type: functional; settings: MCF7, 24 h, read-out: Activity

Row | Compound | IC50 [1] | IC50 [2] | other results
1 | COc1ccc(-c2cc(/C=C/C(=O)c3ccc4c(c3)OCO4)[nH]n2)cc1 | 2.5 µM | 3.3 µM | 
2 | COc1ccc2c(c1)C/C(=C\c1cc(-c3cc(OC)c(OC)c(OC)c3)n[nH]1)C2=O | 2.1 µM | 2 µM | 
3 | COc1cc(-c2cc(/C=C/C(=O)c3ccc(Cl)cc3)[nH]n2)cc(OC)c1OC | 11.6 µM | 26 µM | 
4 | COc1cccc2c1C(=O)c1c(O)c3c(c(O)c1C2=O)C[C@@](O)(C(=O)CO)C[C@@H]3O[C@H]1C[C@H](N)[C@H](O)[C@H](C)O1.Cl [DOXORUBICIN HYDROCHLORIDE] |  |  | Activity [3]: 16.2%; Activity [4]: 82.5%; Activity [5]: 40.1%; Activity [6]: 59.1%; Activity [7]: 1.2%; Activity [8]: 0.8%
5 | O=C(/C=C/c1cc(-c2ccc3c(c2)OCO3)n[nH]1)c1ccccc1 | 8 µM | 12.1 µM | 
6 | O=C(/C=C/c1cc(-c2ccc3c(c2)OCO3)n[nH]1)c1ccc(Cl)cc1 | 15 µM | 17.5 µM | 
7 | O=C(/C=C/c1cc(-c2ccc3c(c2)OCO3)n[nH]1)c1ccc(Cl)c(Cl)c1 | 10.8 µM | 14.8 µM | 
8 | O=C(/C=C/c1cc(-c2ccc3c(c2)OCO3)n[nH]1)c1ccc(F)c(F)c1 | 8.1 µM | 12.1 µM | 
9 | COc1ccc(/C=C\c2cc(OC)c(OC)c(OC)c2)cc1O [COMBRETASTATIN A4] | 0.12 µM | 0.17 µM | Activity [3]: 46.3%; Activity [9]: 46%; Activity [4]: 0%; Activity [5]: 12%; Activity [10]: 7.6%; Activity [11]: 16.8%; Activity [12]: 6.1%; Flu intensity [13]: 558; Activity [6]: 2.4%; Activity [14]: 1.3%; viability at 2 µM [15]: 75.8%; Activity [7]: 56.3%; Activity [8]: 85.5%
10 | COc1ccc(C(=O)/C=C/c2cc(-c3ccc4c(c3)OCO4)n[nH]2)cc1 | 3.5 µM | 3.5 µM | 
11 | Nc1ccc(C(=O)/C=C/c2cc(-c3ccc4c(c3)OCO4)n[nH]2)cc1 | 3.5 µM | 5.1 µM | 
12 | COc1cc(-c2cc(/C=C/C(=O)c3ccccc3)[nH]n2)cc(OC)c1OC | 2.1 µM | 2.3 µM | 
13 | COc1cc(-c2cc(/C=C/C(C)=O)[nH]n2)cc(OC)c1OC | 20.1 µM | 27.3 µM | 
14 | COc1cc2c(cc1OC)C(=O)/C(=C/c1cc(-c3cc(OC)c(OC)c(OC)c3)n[nH]1)C2 | 2 µM | 2.5 µM | 
15 | COc1ccc(C(=O)/C=C/c2cc(-c3ccc4c(c3)OCO4)n[nH]2)cc1F | 13.5 µM | 15.9 µM | 
16 | O=C(/C=C/c1cc(-c2ccc3c(c2)OCO3)n[nH]1)c1ccc2c(c1)OCO2 | 2.1 µM | 3.3 µM | 
17 | O=C1CCCC/C1=C\c1cc(-c2ccc3c(c2)OCO3)n[nH]1 | 15.1 µM | 11.8 µM | 
18 | COc1ccc(-c2cc(/C=C/C(=O)c3cc(OC)c(OC)c(OC)c3)[nH]n2)cc1 | 2 µM | 2.4 µM | 
19 | CC(=O)/C=C/c1cc(-c2ccc3c(c2)OCO3)n[nH]1 | 21.6 µM | 20.2 µM | 
20 | COc1ccc2c(c1)C/C(=C\c1cc(-c3ccc4c(c3)OCO4)n[nH]1)C2=O | 2.7 µM | 4.1 µM | 
21 | COc1cc(-c2cc(/C=C3\CCCCC3=O)[nH]n2)cc(OC)c1OC | 10.1 µM | 17.8 µM | 
22 | O=C1/C(=C/c2cc(-c3ccc4c(c3)OCO4)n[nH]2)CCc2ccccc21 | 9.9 µM | 12.6 µM | 
23 | COc1cc(-c2cc(/C=C3\Cc4ccccc4C3=O)[nH]n2)cc(OC)c1OC | 4.8 µM | 7.1 µM | 
24 | O=C1/C(=C/c2cc(-c3ccc4c(c3)OCO4)n[nH]2)Cc2ccccc21 | 5.1 µM | 8.3 µM | 
25 | COc1cc(-c2cc(/C=C3\CCc4ccccc4C3=O)[nH]n2)cc(OC)c1OC | 8.5 µM | 9.5 µM | 
26 | COc1ccc(C(=O)/C=C/c2cc(-c3cc(OC)c(OC)c(OC)c3)n[nH]2)cc1F | 3 µM | 2.7 µM | 
